One may read the EC50 as the midpoint of the concentration-response curve. One may read the IC50 as the concentration needed to halve the response being measured.

Several values for one entry are separate records, joined by “and”; a condition that tells them apart may be missing. Identical values can stand only once.

One experiment concerns the target full-length human ERβ (Homo sapiens, UniProt Q92731). Put plainly: Luciferase reporter gene assay in HepG2 cells, ERβ, antagonist mode. In kind it is cell-based. Background: In a reporter assay the amount or activity of a reporter protein is the signal.
In experiment [1] the target is T1, full-length human ERα (Homo sapiens, UniProt P03372).
T1 sequence (P03372 1-595): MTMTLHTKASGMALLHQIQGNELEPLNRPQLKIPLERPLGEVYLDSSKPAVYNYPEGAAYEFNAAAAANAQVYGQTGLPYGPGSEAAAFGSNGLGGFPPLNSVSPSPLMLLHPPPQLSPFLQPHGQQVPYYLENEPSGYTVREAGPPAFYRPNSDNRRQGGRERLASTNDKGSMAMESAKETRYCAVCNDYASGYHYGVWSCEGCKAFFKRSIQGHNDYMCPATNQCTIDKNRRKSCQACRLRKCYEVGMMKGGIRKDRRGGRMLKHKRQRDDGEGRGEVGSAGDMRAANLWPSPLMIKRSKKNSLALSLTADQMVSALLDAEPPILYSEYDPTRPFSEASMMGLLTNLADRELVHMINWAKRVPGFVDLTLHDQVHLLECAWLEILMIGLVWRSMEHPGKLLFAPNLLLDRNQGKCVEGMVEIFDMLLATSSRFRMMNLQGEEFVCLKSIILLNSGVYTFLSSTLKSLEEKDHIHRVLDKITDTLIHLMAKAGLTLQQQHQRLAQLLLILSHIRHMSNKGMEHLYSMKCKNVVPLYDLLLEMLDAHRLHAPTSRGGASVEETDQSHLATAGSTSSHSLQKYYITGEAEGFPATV
Put plainly: Luciferase reporter gene assay in HepG2 cells, ERα, agonist mode. As to conditions: for Agonist mode ERα Eff (%E2) / ERα agonist activity / intrinsic activity, in words: HepG2 cells; for Agonist mode ERα Eff (%E2): mean ± s.e.m. as percentage of 10^−7 M E2.

Experiment [2] deals with T1, full-length human ERα. Put plainly: Luciferase reporter gene assay in HepG2 cells, ERα, antagonist mode. It is filed as cell-based.
The target in experiment [3] is purified full-length human ERβ (Homo sapiens, UniProt Q92731). Put plainly: Competitive radiometric binding assay, ERβ. As to conditions: estradiol = 100%; 2 nM [3H]estradiol tracer, 18–24 h at 0 °C.
In experiment [4] the target is T2, purified full-length human ERα (Homo sapiens, UniProt P03372).
T2 sequence (P03372 1-595): T1 sequence (P03372 1-595)
Put plainly: Competitive radiometric binding assay, ERα. As to conditions: estradiol = 100%; 2 nM [3H]estradiol tracer, 18–24 h at 0 °C.

The next experiment deals with HEC-1 cells. As to conditions: cited from earlier work.

Sequence of full-length human ERβ (Q92731 whole entry): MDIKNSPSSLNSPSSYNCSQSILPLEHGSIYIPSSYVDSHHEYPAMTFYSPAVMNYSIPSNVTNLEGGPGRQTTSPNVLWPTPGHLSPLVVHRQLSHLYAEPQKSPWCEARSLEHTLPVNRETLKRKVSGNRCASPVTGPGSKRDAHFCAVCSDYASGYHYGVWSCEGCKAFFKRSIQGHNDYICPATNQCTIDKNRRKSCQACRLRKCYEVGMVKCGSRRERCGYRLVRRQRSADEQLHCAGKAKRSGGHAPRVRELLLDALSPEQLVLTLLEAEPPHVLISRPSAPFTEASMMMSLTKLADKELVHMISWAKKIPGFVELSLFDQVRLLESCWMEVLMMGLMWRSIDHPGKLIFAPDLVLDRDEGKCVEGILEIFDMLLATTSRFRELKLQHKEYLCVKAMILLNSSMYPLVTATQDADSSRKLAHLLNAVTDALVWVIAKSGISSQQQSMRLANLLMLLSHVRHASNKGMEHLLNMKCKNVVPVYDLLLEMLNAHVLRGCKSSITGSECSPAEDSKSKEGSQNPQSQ
Sequence of purified full-length human ERβ (Q92731 whole entry): as above

Turning to `CC/C(=C(\c1ccc(O)cc1)c1ccc(OCCN(C)C)cc1)c1ccccc1` [4-OH TAM, 4-OH tamoxifen, reference compound], at full-length human ERβ, the “Antagonist mode ERβ Eff (%E2)” value is −20 ± 2 %E2.
Take `O=S(=O)(Nc1ccccc1)C1CC2OC1C(c1ccc(O)cc1)=C2c1ccc(O)cc1` (stereo not shown) [Compound 11a, 5,6-Bis(4-hydroxyphenyl)-N-phenyl-7-oxabicyclo[2.2.1]hept-5-ene-2-sulfonamide]: on full-length human ERα [1], a half-maximal effect (EC50) was put at 100 nM and the “Agonist mode ERα Eff (%E2)” value came out at 78 ± 1 %E2.
As to `O=S(=O)(Nc1ccccc1Cl)C1CC2OC1C(c1ccc(O)cc1)=C2c1ccc(O)cc1` (stereo not shown) [Compound 11c, N-(2-Chlorophenyl)-5,6-bis(4-hydroxyphenyl)-7-oxabicyclo-[2.2.1]hept-5-ene-2-sulfonamide], on full-length human ERα [1], it took 200 nM to reach a half-maximal effect (EC50) and the “Agonist mode ERα Eff (%E2)” value is listed as 81 ± 4 %E2.
Consider `O=S(=O)(Nc1ccc(Cl)cc1)C1CC2OC1C(c1ccc(O)cc1)=C2c1ccc(O)cc1` (stereo not shown) [Compound 11d, N-(4-Chlorophenyl)-5,6-bis(4-hydroxyphenyl)-7-oxabicyclo-[2.2.1]hept-5-ene-2-sulfonamide], for which the “Agonist mode ERα Eff (%E2)” value at full-length human ERα [1] turned out to be 42 ± 3 %E2.
With `CN(c1ccccc1)S(=O)(=O)C1CC2OC1C(c1ccc(O)cc1)=C2c1ccc(O)cc1` (stereo not shown) [Compound 11e, 5,6-Bis(4-hydroxyphenyl)-N-methyl-N-phenyl-7-oxabicyclo-[2.2.1]hept-5-ene-2-sulfonamide], the IC50 at full-length human ERα [2] (read-out: Antagonist mode ERα IC50, in the presence of 10^−8 M E2) was 740 nM; at full-length human ERβ (read-out: Antagonist mode ERβ IC50, HepG2 cells, in the presence of 10^−8 M E2) it was 10 nM. Moreover, the “Agonist mode ERα Eff (%E2)” value on full-length human ERα [1] amounted to 31 ± 3 %E2.
With `CN(c1ccccc1Cl)S(=O)(=O)C1CC2OC1C(c1ccc(O)cc1)=C2c1ccc(O)cc1` (stereo not shown) [Compound 11g, N-(2-Chlorophenyl)-5,6-bis(4-hydroxyphenyl)-N-methyl-7-oxabicyclo[2.2.1]hept-5-ene-2-sulfonamide], in experiment [3], the “relative binding affinity (RBA) for ERβ” value is 1.59% and 1.6%. Also, on full-length human ERα [1], a half-maximal response (EC50) required 8 nM and the “Agonist mode ERα Eff (%E2)” value was found to be 33 ± 1 %E2. Moreover, the “relative binding affinity (RBA) for ERα” value in experiment [4] is 7.17% and 7.2%.
Consider `CCN(c1ccccc1)S(=O)(=O)C1CC2OC1C(c1ccc(O)cc1)=C2c1ccc(O)cc1` (stereo not shown) [Compound 11i, N-Ethyl-5,6-bis(4-hydroxyphenyl)-N-phenyl-7-oxabicyclo-[2.2.1]hept-5-ene-2-sulfonamide], for which, on full-length human ERα [1], the “ERα agonist activity / intrinsic activity, in words” value is recorded as “low efficacy compound” and the “Agonist mode ERα Eff (%E2)” value is listed as 11 ± 1 %E2.
Consider `CCN(c1ccc(OC)cc1)S(=O)(=O)C1CC2OC1C(c1ccc(O)cc1)=C2c1ccc(O)cc1` (stereo not shown) [Compound 11j, N-Ethyl-5,6-bis(4-hydroxyphenyl)-N-(4-methoxyphenyl)-7-oxabicyclo[2.2.1]hept-5-ene-2-sulfonamide], for which, at full-length human ERα [1], the “ERα agonist activity / intrinsic activity, in words” value is “as low as that for fulvestrant” and the “Agonist mode ERα Eff (%E2)” value stood at 3 ± 1 %E2. Besides, the “ERβ profile / intrinsic activity, in words” value at full-length human ERβ (HepG2 cells) is on record as “as low as that for fulvestrant”.
`CCN(c1ccccc1Cl)S(=O)(=O)C1CC2OC1C(c1ccc(O)cc1)=C2c1ccc(O)cc1` (stereo not shown) [Compound 11k, N-(2-Chlorophenyl)-N-ethyl-5,6-bis(4-hydroxyphenyl)-7-oxabicyclo[2.2.1]hept-5-ene-2-sulfonamide]: the “Agonist mode ERα Eff (%E2)” value at full-length human ERα [1] was 13 ± 1 %E2.
As for `CCN(c1ccc(Cl)cc1)S(=O)(=O)C1CC2OC1C(c1ccc(O)cc1)=C2c1ccc(O)cc1` (stereo not shown) [Compound 11l, N-(4-Chlorophenyl)-N-ethyl-5,6-bis(4-hydroxyphenyl)-7-oxabicyclo[2.2.1]hept-5-ene-2-sulfonamide], the “Agonist mode ERα Eff (%E2)” value at full-length human ERα [1] was 1 ± 1 %E2.
With `O=S(=O)(C1CC2OC1C(c1ccc(O)cc1)=C2c1ccc(O)cc1)N(CC(F)(F)F)c1ccc(Cl)cc1` (stereo not shown) [Compound 11o, N-(4-Chlorophenyl)-5,6-bis(4-hydroxyphenyl)-N-(2,2,2-trifluoroethyl)-7-oxabicyclo[2.2.1]hept-5-ene-2-sulfonamide], on full-length human ERα [1], the “Agonist mode ERα Eff (%E2)” value came out at 3 ± 3 %E2.
Take `C[C@]12CC[C@@H]3c4ccc(O)cc4C[C@@H](CCCCCCCCC[S+]([O-])CCCC(F)(F)C(F)(F)F)[C@H]3[C@@H]1CC[C@@H]2O` (stereo partly shown) [Fulvestrant, fulvestrant, reference compound]: the “ERα antagonist profile, in words” value on full-length human ERα [2] is “full antagonist”. In addition, the “Agonist mode ERα Eff (%E2)” value on full-length human ERα [1] is listed as 1 ± 1 %E2. Besides, on full-length human ERβ (HepG2 cells), the “ERβ profile / intrinsic activity, in words” value is “full antagonist”.
For the molecule `O=S(=O)(Oc1ccccc1)[C@H]1C[C@H]2O[C@@H]1C(c1ccc(O)cc1)=C2c1ccc(O)cc1` [OBHS, exo-5,6-bis-(4-hydroxyphenyl)-7-oxabicyclo[2.2.1]hept-5-ene-2-sulfonic acid phenyl ester], the “profile in HEC-1 cells, in words” value in the experiment with HEC-1 cells is reported as “full antagonist”.

(Values after article PMC3500388 (Organic & biomolecular chemistry, 2012).)
